{"source": "paper PMC3924328", "about": "“Structure of the S100A4/myosin-IIA complex” (BMC Structural Biology, 2013)", "key": {"[1]": {"tested_on": "myosin-IIA rods (MIIA^1339−1960)", "assay": "Promotion of disassembly assay, assembled myosin-IIA rods", "type": "biochemical", "conditions": "one S100A4Δ8C dimer per myosin-IIA rod; 1.5 μM S100A4 dimer, 1.5 μM rod dimer; 20 mM Tris–HCl pH 7.5, 150 mM NaCl, 1 mM DTT, 2 mM MgCl2, 0.5 mM CaCl2, 0.02% NaN3; 2 hr, 22°C; SDS-PAGE densitometry; two independent experiments", "protocol": "Assays comparing the ability of wild-type and the Δ8C S100A4 to depolymerize assembled myosin-IIA rods were performed as described in Li et al., using 1.5 μM S100A4 dimer and 1.5 μM myosin-IIA rod dimer in 20 mM Tris–HCl pH 7.5, 150 mM NaCl, 1 mM DTT, 2 mM MgCl2, 0.5 mM CaCl2, and 0.02% NaN3. Reaction mixtures (100 μl) were incubated for 2 hr at 22°C and then centrifuged at 80,000 rpm (175000 g) for 10 min at 25°C in a TL-100 ultracentrifuge (Beckman). Samples of the reaction mixtures and supernatants were separated on a 12% Tris-Tricine SDS-polyacrylamide gel. Coomassie-stained gels were scanned and the extent of myosin-IIA polymerization was quantified by densitometry and analyzed with the ImageQuant version 5.2."}, "myosin-IIA rods": {"tested_on": "myosin-IIA rods", "conditions": "assembly-competent myosin-II rod constructs; ref [19], [20]; cited from earlier work", "excerpt": "Each heavy chain is comprised of an N-terminal motor domain that contains the ATP- and actin-binding sites, an intermediate rod domain that dimerizes to form an α-helical coiled-coil and a C-terminal tailpiece."}, "[2]": {"conditions": "submicromolar concentrations; ref [4], [27], [30]; cited from earlier work", "protocol": "Given the similarity in the molecular weights of the S100A4 and MIIA^1851-1960 dimers, the S100A4/MIIA^1851-1960 complex was further evaluated in sedimentation velocity experiments where MIIA^1851-1960 was added to S100A4 at increasing molar ratios. […] At a molar ratio of 0.5:1 MIIA^1851-1960 dimer to S100A4 dimer there was a shift in the S val ..."}, "S100A4 [3]": {"target": "T1, S100A4 (Homo sapiens, UniProt P26447)", "T1 construct": "heteronuclear single quantum coherence spectrum (HSQC) of full-length Ca^2+-S100A4 at 600 MHz; made in house; host or cells: E. coli, M9 medium with 15N NH4Cl (BL21(DE3)* is named for the unlabelled protein)", "T1 sequence (P26447 2-101 limits assumed, one chain of several)": "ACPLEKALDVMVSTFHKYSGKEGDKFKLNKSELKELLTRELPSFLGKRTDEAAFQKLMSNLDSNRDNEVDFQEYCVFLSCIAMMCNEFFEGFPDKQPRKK", "assay": "Sedimentation velocity of MIIA^1851-1960, S100A4 and S100A4/MIIA^1851-1960 mixtures", "type": "physicochemical", "protocol": "Sedimentation equilibrium and velocity experiments were conducted at 22°C in a Beckman XL-I analytical ultracentrifuge using a Ti60 rotor and Raleigh interference optics. Wild-type S100A4 and MIIA^1851-1960 were dialyzed into 20 mM Tris pH 7.5, 150 mM KCl, 0.5 mM CaCl2, 1 mM TCEP and 0.02% NaN3 and clarified by ultracentrifugation at 80,000 rpm for 10 minutes at 4°C in TLA 120.2 rotor. Sedimentation equilibrium analysis of MIIA^1851-1960 and S100A4 was conducted in six channel centerpieces by sequentially equilibrating the protein at three concentrations for 24 hr at 12,000, 20,000 and 28,000 rpm and globally analyzing the data using HeteroAnalysis v1.1.44 (James L. Cole and Jeffrey W. Lary). The sedimentation velocity experiments were conducted at 53,000 rpm using double sector centerpieces and analyzed using DCDT + v2.4.0 [57, 58]. The best-fit parameters and their 95% joint confidence intervals are reported. The calculated masses of the wild-type S100A4 and MIIA^1851-1960 monomers are 11,597.3 and 12,397.5 Da, respectively. Values of ν-bar = 0.715 for S100A4/MIIA^851-1960 and 0.735 for S100A4, ρ = 1.0059, μ = 1.00586 cp were calculated using Sednterp v1.06 (Hayes, B., T. Laue & J. Philo, Sedimentation Interpretation Program. 2003, University of New Hampshire) from the amino acid and buffer compositions, respectively."}, "S100A4 [4]": {"tested_on": "S100A4", "conditions": "S100A4 bound to MIIA^1908-1923; ref [4]; cited from earlier work", "excerpt": "In this regard, we examined whether this small peptide was sufficient to induce what is termed the “final folding” event that occurs upon S100 protein-target complex formation. […] As found for other wild-type and mutant S100 proteins [[6] ..."}, "S100A4Δ8C [5]": {"target": "T2, S100A4Δ8C (Homo sapiens, UniProt P26447)", "T2 construct": "unable to crystallize the wild-type full-length S100A4 with myosin-IIA peptides; made in house; host or cells: E. coli BL21(DE3)*", "T2 sequence (P26447 2-93, stated change not applied)": "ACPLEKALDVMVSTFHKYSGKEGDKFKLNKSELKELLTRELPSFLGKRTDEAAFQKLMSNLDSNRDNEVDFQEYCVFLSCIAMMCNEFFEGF", "assay": "NMR titration of MIIA^1908-1923 into ^15N-labeled Ca^2+-bound S100A4Δ8C", "type": "binding", "protocol": "(§1) HSQC NMR data were collected at 37°C with a 600 MHz (600.13 MHz for protons) Bruker DMX NMR spectrometer equipped with pulsed-field gradients, four frequency channels, and a triple resonance, z-axis gradient cryogenic probe, Data were processed with NMRPipe, and proton chemical shifts were reported with respect to the H2O or HDO signal taken as 4.658 ppm relative to external trimethylsilylpropionic acid (0.0 ppm). The ^15 N chemical shifts were indirectly referenced as described previously using the following ratio of the zero-point frequency: 0.10132905 for ^15 N to ^1H [56]."}, "S100A4Δ8C [6]": {"target": "T2, S100A4Δ8C", "assay": "Fluorescence anisotropy, FITC-MIIA^1904-1927 binding to S100A4Δ8C", "conditions": "22°C, 5 mM EGTA, data not shown", "protocol": "Fluorescence anisotropy measurements were performed at 22°C using a Fluoromax-3-spectrofluorometer (Jobin Yvon). Individual reactions (200 μl) contained 50 nM FITC-MIIA^1904-1927 and 0–30 μM S100A4Δ8C dimer in 20 mM Tris pH 7.5, 150 mM KCl, 1 mM DTT, 0.02% NaN3, 0.5 mM CaCl2 and 0.5 mg/ml BSA. For competition anisotropy measurements individual reactions contained 50 nM FITC-MIIA^1904-1927, 0.3 μM S100A4 dimer and 0–10 μM MIIA^1851-1960 dimer as described above. Controls included experiments representing maximum anisotropy (15 μM wild-type S100A4 and S100A4Δ8C, 50 nM FITC-MIIA^1904-1927 and calcium) and minimum anisotropy (in the absence of S100A4 and in the presence of S100A4 and 5 mM EGTA). Anisotropy was measured using excitation and emission wavelengths of 490 nm and 520 nm, respectively. Measurements were acquired at the magic angle of 55° between the vectors of polarization of the excitation and emission light using a G factor of 0.634 as determined previously for FITC on this instrument. For measurements of S100A4Δ8C binding, data from two independent experiments were plotted using Graphpad Prism v5, and the dissociation constant was calculated by fitting to a single site saturation binding equation allowing for a floating Ymin value. […]"}, "S100A4 [7]": {"target": "S100A4", "set-up": "method as in PMID 18410126", "conditions": "ref [4]; cited from earlier work"}, "Ca^2+-S100A4": {"tested_on": "Ca^2+-S100A4", "assay": "Paramagnetic relaxation, titration with spin-labeled MIIA^1893-1923-Cys-Proxyl", "type": "binding, human", "conditions": "HSQC, 37°C, pH 6.5", "protocol": "The beads containing the immobilized TCEP and other particulates were removed using a 0.45 μm Nanosep MF GHP centrifugal device (Pall Life Sciences) before the addition of 61 μl freshly prepared 50 mg/ml 3-maleimido-Proxyl (Sigma-Aldrich) in DMSO.\nas §1"}, "[8]": {"conditions": "sedimentation velocity, 22°C, protein alone"}}, "note": "The star is where a group is joined. FITC = O=C1OC2(c3ccc(O)cc3Oc3cc(O)ccc32)c2ccc(NC(=S)*)cc21; Ahx = NCCCCCC(=O)O"}
{"substance": "S100A4Δ8C: S100A4 deletion mutant (deletion of the C-terminal eight amino acids)", "values": [{"measurement": "Myosin-IIA filaments disassembled", "setting": "[1]", "value": "approximately 85%"}]}
{"substance": "S100A4: untagged, full-length human S100A4", "values": [{"measurement": "Myosin-II isoform preference", "setting": "myosin-IIA rods", "value": "preferentially recognizes and disassembles myosin-IIA rods"}, {"measurement": "Dimer stability", "setting": "[2]", "value": "thermostable dimer at submicromolar concentrations"}, {"measurement": "Effect of S100A4 binding on dimeric myosin-IIA construct", "setting": "S100A4 [3]; longer, dimeric myosin-IIA construct", "value": "dissociates the two myosin-IIA polypeptide chains to form a complex composed of one S100A4 dimer and a single myosin-IIA polypeptide chain"}, {"measurement": "Peak 1 S20,w", "setting": "S100A4 [3]; sedimentation velocity, 22°C, 53,000 rpm, protein alone, 20 mM Tris pH 7.5, 150 mM KCl, 0.5 mM CaCl2, 1 mM TCEP, 0.02% NaN3", "value": "1.90 ± 0.01"}, {"measurement": "Peak 1 MW", "setting": "S100A4 [3]; [8]", "value": "21.2 ± 0.3", "unit": "kDa"}, {"measurement": "S value", "setting": "S100A4 [3]; [8]", "value": 1.9, "unit": "S"}, {"measurement": "[Peak 1] (green), relative amount of plateau concentrations", "setting": "S100A4 [3]; [8]", "value": "2.00 ± 0.02"}]}
{"substance": "Ace-DAMNREVSSLKNKLRR-CONH2 [MIIA^1908-1923]", "values": [{"measurement": "Ca^2+-binding affinity of S100A4 when peptide bound", "setting": "S100A4 [4]", "value": "higher Ca^2+-binding affinity"}, {"measurement": "Binding orientation to S100A4Δ8C versus wild-type S100A4", "setting": "S100A4Δ8C [5]; 37°C, pH 6.5, 10 mM CaCl2", "value": "very similar structure/orientation in solution as observed for wild-type S100A4"}, {"measurement": "Exchange broadening of Ca^2+-bound S100A4Δ8C upon complex formation", "setting": "S100A4Δ8C [5]; data not shown", "value": "exchange broadening completely disappeared"}]}
{"substance": "{FITC-Ahx}-TETADAMNREVSSLKNKLRRGDLP-NH2 [FITC-MIIA^1904-1927]", "values": [{"measurement": "Binding to S100A4Δ8C in the presence of EGTA", "setting": "S100A4Δ8C [6]", "value": "no binding was observed"}]}
{"substance": "Ac-RRKLQRELEDATETADAMNREVSSLKNKLRR-CONH2 [MIIA^1893-1923]", "values": [{"measurement": "Dissociation constant, in words", "setting": "S100A4 [7]", "value": "in the nanomolar range"}]}
{"substance": "MIIA^1893-1923-Cys-Proxyl: MIIA^1893-1923-Cys labeled with 3-maleimido-Proxyl spin label", "values": [{"measurement": "Residues with large reductions in cross-peak intensities", "setting": "Ca^2+-S100A4; 2.6 μM spin-labeled peptide", "value": "loop 1 (Asp25), the beginning of helix 3 (Asp51, Glu52) and in the C-terminal loop (Lys100)"}, {"measurement": "Location of peptide C-terminus on S100A4 by paramagnetic relaxation", "setting": "Ca^2+-S100A4; 2.6 and 5.3 μM spin-labeled peptide", "value": "near residues in helix 3 and the hinge (Leu46, Gly47, Asp51, Glu52"}]}
